Our source for the EC50, CC50 and selectivity ratio values is ChEMBL document CHEMBL5244254, “Potential treatment methods targeting 2019-nCoV infection” (Eur J Med Chem, 2020).

The term EC50 denotes the concentration giving half of the maximal effect. Broadly, the CC50 is the concentration giving 50% cytotoxicity.

Series [1] has as its system SARS-CoV-2. The series can be described thus: Antiviral activity against Severe acute respiratory syndrome coronavirus 2 infected in African green monkey Vero cells incubated for 24 to 48 hrs. The following applies: Severe acute respiratory syndrome coronavirus 2, Vero. It is filed as functional, organism-based.
Series [2] is described as follows: Inhibition of Severe acute respiratory syndrome coronavirus CYP3A4. It is filed as ADME, Severe acute respiratory syndrome-related coronavirus.
The subject of series [3] is West Nile virus. The series can be described thus: Antiviral activity against West Nile virus 13-104 infected in african green monkey Vero cells. It is filed as functional, organism-based. The following applies: 13-104, Vero.
Series [4] relates to Tick-borne encephalitis virus. The experiment in a line: Antiviral activity against Tick-borne encephalitis virus Hypr infected in african green monkey Vero cells. Type of series: functional, organism-based.
Series [5] concerns West Nile virus. The series can be described thus: Antiviral activity against West Nile virus Eg101 infected in african green monkey Vero cells. Type of series: functional, organism-based.
Series [6] relates to Zika virus. The series can be described thus: Antiviral activity against Zika virus MR-766 infected in african green monkey Vero cells. Type of series: functional, organism-based. The following applies: MR-766, Vero.
The test system of series [7] is Zika virus. The series can be described thus: Antiviral activity against Zika virus Paraiba-01 infected in african green monkey Vero cells. The following applies: Paraiba-01, Vero. Type of series: functional, organism-based.
Series [8] in a line: Cytotoxicity against African green monkey Vero E6 cells assessed as cell growth inhibition incubated for 48 hrs. Type of series: toxicity, cell-based, Vero C1008. The following applies: chlorocebus sabaeus.
Series [9] has as its system SARS-CoV-2. The series can be described thus: Antiviral activity against Severe acute respiratory syndrome coronavirus 2. Type of series: functional, organism-based.
Series [10] can be described thus: Selectivity ratio of CC50 for African green monkey Vero E6 cells to EC50 for Severe acute respiratory syndrome coronavirus […]. Type of series: toxicity, Vero C1008. The following applies: read-out: Ratio CC50/EC50.
Series [11] in a line: Cytotoxicity against African green monkey Vero E6 cells assessed as cell growth inhibition incubated for 24 hrs by CCK8 assay. The following applies: chlorocebus sabaeus. Type of series: toxicity, cell-based, Vero C1008. Background: Tetrazolium dyes change colour on reduction, which living cells bring about.
Series [12] deals with SARS-CoV-2. The experiment in a line: Antiviral activity against Severe acute respiratory syndrome coronavirus 2 incubated for 48 hrs by TCID50 assay. It is filed as functional, organism-based. The settings on record: Severe acute respiratory syndrome coronavirus 2, 48 h.
For another series, the system named is Ebolavirus. The series can be described thus: Antiviral activity against Ebolavirus infected in African green monkey Vero E6 cells. The settings on record: Orthoebolavirus, Vero C1008. It is filed as functional, organism-based.
Series [13] can be described thus: Selectivity ratio of CC50 for African green monkey Vero E6 cells to EC50 for Severe acute respiratory syndrome coronavirus infected in African green monkey Vero E6 cells. Type of series: toxicity, Vero C1008. The following applies: read-out: Ratio CC50/EC50.
The nature of series [14]: Cytotoxicity against African green monkey Vero E6 cells assessed as cell growth inhibition incubated for 48 hrs by CCK8 assay. It is filed as toxicity, cell-based, Vero C1008. The settings on record: chlorocebus sabaeus.
The nature of series [15]: Inhibition of Severe acute respiratory syndrome coronavirus 3CL protease. Also on record: species or system Severe acute respiratory syndrome-related coronavirus.
The test system of series [16] is SARS-CoV. The series can be described thus: Antiviral activity against Severe acute respiratory syndrome coronavirus. The settings on record: Severe acute respiratory syndrome-related coronavirus. Type of series: functional, organism-based.
Series [17] deals with SARS-CoV. The experiment in a line: Antiviral activity against Severe acute respiratory syndrome coronavirus infected in African green monkey Vero E6 cells. The following applies: Severe acute respiratory syndrome-related coronavirus, Vero C1008. It is filed as functional, organism-based.

Molecules are shown by their SMILES. In brackets after ≈: the same amount, converted by molar mass.

In the series on SARS-CoV-2 [1], `CCN(CCO)CCCC(C)Nc1ccnc2cc(Cl)ccc12` (configuration not stated) [HYDROXYCHLOROQUINE] showed an EC50 of 720 nM.

The compound `CC(C)c1nc(CN(C)C(=O)N[C@H](C(=O)N[C@@H](Cc2ccccc2)C[C@H](O)[C@H](Cc2ccccc2)NC(=O)OCc2cncs2)C(C)C)cs1` [RITONAVIR] gave an EC50 in [2] of more than 100 µM.

With `CCOC(=O)c1c(CSc2ccccc2)n(C)c2cc(Br)c(O)c(CN(C)C)c12` [UMIFENOVIR], the EC50 (in the series on West Nile virus [3]; in series [4]; with West Nile virus [5]; in the series on Zika virus [6]; with Zika virus [7]) was 10.6 µM in each case.

In the case of `CCOC(=O)C1=C[C@@H](OC(CC)CC)[C@H](NC(C)=O)[C@@H](N)C1` [OSELTAMIVIR], the CC50 at 48 h in [8] is more than 100 µM. The same compound gave an EC50 with SARS-CoV-2 [9] of more than 100 µM.

Take `O=C[C@H](C[C@@H]1CCNC1=O)NC(=O)[C@H](Cc1cccc(F)c1)NC(=O)c1cc2ccccc2[nH]1`: in series [10], the selectivity ratio is more than 139. Further, in series [11], the CC50 at 24 h is more than 100 µM.

In turn, `Cc1cccc(C)c1OCC(=O)N[C@@H](Cc1ccccc1)[C@@H](O)C[C@H](Cc1ccccc1)NC(=O)[C@H](C(C)C)N1CCCNC1=O` [LOPINAVIR] returned an EC50 in the series on SARS-CoV-2 [12] of 26.1 µM.

For the compound `O=C[C@H](C[C@@H]1CCNC1=O)NC(=O)[C@H](CC1CCCCC1)NC(=O)c1cc2ccccc2[nH]1`, the half-maximal cytotoxic concentration (CC50) at 24 h in [11] was more than 100 µM.

In the series on Ebolavirus, `NC(=O)c1nc(F)cnc1O` had a concentration giving a half-maximal response (EC50) of 10.5 µg/mL (≈ 66.8 µM). The selectivity ratio in [13] is more than 6.46. The CC50 at 48 h in series [14] was more than 400 µM.

`Cc1cc(C(=O)N[C@@H](C)C(=O)N[C@H](C(=O)N[C@@H](CC(C)C)C(=O)N[C@H](/C=C/C(=O)OCc2ccccc2)C[C@@H]2CCNC2=O)C(C)C)no1` registered an EC50 in series [15] of 16.8 µM.

Turning to `CC(C)(C)OC(=O)Nc1cccn([C@@H](CC2CC2)C(=O)N[C@H](CC(=O)NCc2ccccc2)C[C@@H]2CCNC2=O)c1=O`, a half-maximal effect in [15] (EC50) was put at 4 µM.

In turn, `NC(=O)c1ncn([C@@H]2O[C@H](CO)[C@@H](O)[C@H]2O)n1` [RIBAVIRIN] registered a concentration for a half-maximal effect (EC50) with SARS-CoV [16] of more than 100 µM.

Compound `CCN(CC)CCCC(C)Nc1ccnc2cc(Cl)ccc12` (configuration not stated) [CHLOROQUINE] gave an EC50 in the series on SARS-CoV [17] of 1130 nM. Besides, the selectivity ratio in [13] was more than 88.5. Moreover, in series [14], the CC50 at 48 h is more than 100 µM.
